Columns and labels:
[1] = system: Agaricus bisporus mycelia; test: Dry matter of mycelia grown in potato dextrose yeast broth at 25° C.; assay type: cell-based, Agaricus bisporus (hybrid off-white); details: Week 5, control 15.6 b
Experimental: (§1) The commercial mushroom spawn (hybrid off-white), Agaricus bisporus (Lange) Imbach, was obtained from Alpha Spawn Co., Avondale, Pa., and inoculated onto potato dextrose yeast (PDY) agar (Difco) and incubated at 25° C. A pure culture was obtained from the grain spawn grown on petri dishes and re-inoculated into PDY agar and maintained at 25° C. before use.
(§2) The mushroom culture was grown on PDY agar or in PDY broth, both containing 0.5% yeast extract. The broth was dispensed into flasks prior to autoclaving, 50 mL. per flask, while 5 mL of sterile ODA solutions were aseptically added into flasks before inoculation.
(§3) To prepare ODA solutions, about 18.4 mg (0.1 mmole) of 10-oxo-trans-8-decenoic acid prepared as described above were dissolved in i mL ethanol and diluted with deionized water to 100 mL to give a molar concentration of 10^-3 M, and then diluted in order to add 1.0 mL of the solutions to each flask to give the required final concentrations.
Sterile ODA solutions were aseptically added into the autoclaved agar medium to achieve the desired final ODA concentrations, and then the medium was dispensed into petri dishes, ca 30 ml per dish. The levels of ODA tested included 2×10^-4, 10^-4, 10^-5, 10^-6 and 10^-7 M for both PDY agar and broth. These flasks and dishes were inoculated with 1 mm mycelial plugs from 4-week old cultures and incubated statically at 25° C. for 5 weeks. Each week, ca 300 μL of broth was aseptically taken from the flasks for laccase assay, while the colony diameter of every petri dish was measured using a vernier caliper to calculate the linear growth of the culture.
After 5-weeks of incubation, the dry matter of mycelia was determined by vacuum filtering liquid cultures in PDY broth through weighed filter paper, and drying to constant weight at 70° C.
(§4) Methods for the estimation of total fungal growth include the measurement of dry matter, linear growth, carbon dioxide evolution, chitin, ATP as well as extracellular laccase activity (Cochrane, (1958); Wood, (1979)). In this research the linear growth rate was used to examine the growth of mushroom mycelia on agar plates, while the extracellular laccase activity and dry matter were determined to estimate the growth of mycelia in liquid cultures. Extracellular laccases (p-diphenol: oxygen oxidoreductase, EC 1.10.3.2) produced by various classes of fungi are reported to be involved in biotransformation of lignin and lignosulfonate (Anders et al., (1976)), as well as in the breakdown of cellulose by cellulase (Westermark et al., (1974a); Westermark et al., (1974b); Haars et al., (1980)). Although the role of laccase in growth and development of Agaricus bisporus is not well defined, it has been observed that laccase production correlated with mycelial biomass of this fungus (Wood, (1979); Matcham et al., (1985); Claydon et al., (1988)).

[2] = system: Agaricus bisporus mycelia; test: Linear growth rate of mycelia on potato dextrose yeast (PDY) agar at 25° C.; assay type: cell-based, Agaricus bisporus (hybrid off-white); details: for linear growth rate of mycelia (in words): PDY agar; for Linear growth rate: control 5.66
Experimental: as §1, §2, §3
Sterile ODA solutions were aseptically added into the autoclaved agar medium to achieve the desired final ODA concentrations, and then the medium was dispensed into petri dishes, ca 30 ml per dish. The levels of ODA tested included 2×10^-4, 10^-4, 10^-5, 10^-6 and 10^-7 M for both PDY agar and broth. […]
as §4

[3] = system: separated upper stipes of Agaricus bisporus; test: Elongation of separated upper stipes on test agar containing ODA, storage at 12° C.; parameters: species or system Agaricus bisporus (hybrid off-white)
Experimental: Four type strains of mushrooms were used: the white, off-white, hybrid white (U3) and hybrid off-white (U1). Mushrooms from each flush were harvested before the veil was broken. Freshly harvested mushrooms were transported within about one hour after harvest to Borland Laboratory and placed in the pilot plant cold room (4° C.) for about two hours before sampling. Mushrooms were sorted on the basis of size and appearance. Diseased, damaged, misshapen, veil-opened and extremely large or small mushrooms (>40 or <25 mm in cap diameter) were discarded. Mushrooms of uniform size (25-40 mm) and maturity of the button stage (stage 1, veil intact tightly) were used in this research.
Whole stipes were cut at the lower portions to a length of 7-9 mm to standardize the sample, and marked at the middle of the veil, which is the location where the veil attaches to the stipe, to indicate the upper and lower stipes. The separated stipes contained 2-4 mm of upper stipes and 5-6 nun of lower stipes. For the study using separated upper stipes, mushrooms were dissected directly into upper stipes with a length of 3-5 mm. The separated stipes or upper stipes were put upside down on the test agar containing various mushroom supernatants or ODA concentrations; i.e., the upper sides in contact with the agar surface (FIG. 12). All petri dishes were covered and stored at 12° C. The length of separated stipes and upper stipes was measured using a vernier caliper before and after certain days of storage.
Sterile ODA solutions were aseptically added into the autoclaved agar solutions to achieve the desired final ODA concentrations. The agar solution was then dispensed into dishes, ca 20.8 mL per dish. The level of ODA tested included 10^-4, 10^-5, 10^-6, 10^-7, and 10^-8 M. Mushrooms (hybrid off-white) from 6 different crops were used to study their postharvest growth. In the first 2 experiments, mushroom stipes were measured after 4-day storage at 12° C. In order to prevent stipe deterioration and desiccation of the test agar, in the following experiments mushroom stipes were measured after 3-day storage at 12° C.
The experimental data were subjected to a single classification analysis of variance (AOV) for a completely randomized design (Steele et al., 1980). Fisher's protected least significant difference (LSD) was applied to separate the means. The level of significance used in this research was 0.05.
Since the upper stipe was the major portion which responded to crude preparations of ODA, the following experiment used only upper stipes and applied pure ODA solns to the test agar. Because desiccation of the test agar sometimes occurred after 4 days of storage, in the third replication of this experiment and in subsequent experiments, the stipes were measured after 3 days of storage.

[4] = system: separated stipes of Agaricus bisporus; test: Elongation of separated stipes on test agar containing mushroom supernatants, 6-day storage at 12° C.; parameters: species or system Agaricus bisporus (off-white); details: as a function of added ODA
Experimental: Whole stipes were cut at the lower portions to a length of 7-9 mm to standardize the sample, and marked at the middle of the veil, which is the location where the veil attaches to the stipe, to indicate the upper and lower stipes. The separated stipes contained 2-4 mm of upper stipes and 5-6 nun of lower stipes. […] The length of separated stipes and upper stipes was measured using a vernier caliper before and after certain days of storage.
Sterile mushroom supernatants (25 mL), phosphate buffer and deionized H2 O were added aseptically into 175 mL agar solution prior to dispensing into dishes. […] The concentrations of ODA in the 2% agar were calculated to be 3.4×10^-6, 6.0×10^-5, and 1.2×10^-4 M for treatments 3, 4 and 5. […]

SMILES: O=C/C=C/CCCCCCC(=O)O [ODA, 10-oxo-trans-8-decenoic acid]
- Dry matter ([1]; ODA 2 × 10^-4 M (36.8 ppm)): 16.7 mg
- Dry matter ([1]; ODA 10^-4 M (18.4 ppm)): 23.2 mg
- Dry matter ([1]; ODA 10^-5 M (1.84 ppm)): 48.5 mg
- Dry matter ([1]; ODA 10^-6 M (0.184 ppm)): 44.1 mg
- Dry matter ([1]; ODA 10^-7 M (0.0184 ppm)): 16.9 mg
- linear growth rate of mycelia (in words) ([2]; 2×10^-4 and 10^-4 M (36.8 and 18.4 ppm)): greatly increased
- linear growth rate of mycelia (in words) ([2]; 10^-5 M (1.84 ppm)): slightly increased
- activity at 200 µM ([2]; Agaricus bisporus, ODA 2 × 10^-4 M (36.8 ppm), control 1.00 d, significance letter a, read-out: Relative linear growth rate): 188%
- activity at 100 µM ([2]; Agaricus bisporus, ODA 10^-4 M (18.4 ppm), control 1.00 d, significance letter b, read-out: Relative linear growth rate): 150%
- activity at 10 µM ([2]; Agaricus bisporus, ODA 10^-5 M (1.84 ppm), control 1.00 d, significance letter c, read-out: Relative linear growth rate): 114%
- activity at 1 µM ([2]; Agaricus bisporus, ODA 10^-6 M (0.184 ppm), control 1.00 d, significance letters cd, read-out: Relative linear growth rate): 110%
- activity at 0.1 µM ([2]; Agaricus bisporus, ODA 10^-7 M (0.0184 ppm), control 1.00 d, significance letters cd, read-out: Relative linear growth rate): 105%
- Linear growth rate ([2]; ODA 2 × 10^-4 M (36.8 ppm) in PDY agar): 9.85 mm/wk
- Linear growth rate ([2]; ODA 10^-4 M (18.4 ppm) in PDY agar): 8.42 mm/wk
- Linear growth rate ([2]; ODA 10^-5 M (1.84 ppm) in PDY agar): 6.40 mm/wk
- Linear growth rate ([2]; ODA 10^-6 M (0.184 ppm) in PDY agar): 6.17 mm/wk
- Linear growth rate ([2]; ODA 10^-7 M (0.0184 ppm) in PDY agar): 5.90 mm/wk
- effect on mushroom mycelial growth (in words) ([2]; PDY agar and broth, linear growth, dry matter and laccase activity): significant stimulatory effect
- % Elongation of upper stipes ([3]; ODA 10^-4 M (18.4 ppm), rep 1, 4-day storage, control 34.3): 34.8%
- % Elongation of upper stipes ([3]; ODA 10^-4 M (18.4 ppm), rep 2, 4-day storage, control 33.3): 40.1%
- % Elongation of upper stipes ([3]; ODA 10^-4 M (18.4 ppm), rep 3, 3-day storage, control 20.5): 17.7%
- % Elongation of upper stipes ([3]; ODA 10^-5 M (1.84 ppm), rep 1, 4-day storage, control 34.3): 35.5%
- % Elongation of upper stipes ([3]; ODA 10^-5 M (1.84 ppm), rep 2, 4-day storage, control 33.3): 36.5%
- % Elongation of upper stipes ([3]; ODA 10^-5 M (1.84 ppm), rep 3, 3-day storage, control 20.5): 19.3%
- % Elongation of upper stipes ([3]; ODA 10^-6 M (0.184 ppm), rep 1, 4-day storage, control 34.3): 39.9%
- % Elongation of upper stipes ([3]; ODA 10^-6 M (0.184 ppm), rep 2, 4-day storage, control 33.3): 35.7%
- % Elongation of upper stipes ([3]; ODA 10^-6 M (0.184 ppm), rep 3, 3-day storage, control 20.5): 16.6%
- % Elongation of upper stipes ([3]; ODA 10^-7 M (0.0184 ppm), rep 1, 4-day storage, control 34.3): 41.0%
- % Elongation of upper stipes ([3]; ODA 10^-7 M (0.0184 ppm), rep 2, 4-day storage, control 33.3): 42.3%
- % Elongation of upper stipes ([3]; ODA 10^-7 M (0.0184 ppm), rep 3, 3-day storage, control 20.5): 18.1%
- % Elongation of upper stipes ([3]; ODA 10^-8 M (0.00184 ppm), rep 1, 4-day storage, control 34.3): 30.1%
- % Elongation of upper stipes ([3]; ODA 10^-8 M (0.00184 ppm), rep 2, 4-day storage, control 33.3): 39.6%
- % Elongation of upper stipes ([3]; ODA 10^-8 M (0.00184 ppm), rep 3, 3-day storage, control 20.5): 15.8%
- elongation of upper stipes among treatments (in words) ([3]; pure ODA, upper stipes only): no differences
- elongation of lower stipes (in words) [4]: no differences

Source: patent publication US5681738A, “Use of 10-oxo-trans-8-decenoic acid in mushroom cultivation” (The Penn State Research Foundation, priority 1992, dated 1997)
